Experiments:
PC-3 cells = test: Cell rounding of PC-3 cells; format: cell-based, human; design: dose or concentration left out as unconfirmed
Source text: As we first reported in 2000, EphA2 activation on PC-3 cells by ephrin-A1 induced rapid cell rounding, a phenomenon that is correlated with inhibition of integrin function.

[1] = molecular target: T1, rat α1a adrenergic receptor (Rattus norvegicus, UniProt P43140); test: Adrenoceptor binding, [3H]-prazosin competition; details: [3H]-prazosin 0.25 nM, triplicate, mean±SD; read-out: IC50, α-adrenoceptor binding
T1 construct: Eurofins Panlabs Taiwan, Ltd. (contract assay)
T1 sequence (P43140 1-466): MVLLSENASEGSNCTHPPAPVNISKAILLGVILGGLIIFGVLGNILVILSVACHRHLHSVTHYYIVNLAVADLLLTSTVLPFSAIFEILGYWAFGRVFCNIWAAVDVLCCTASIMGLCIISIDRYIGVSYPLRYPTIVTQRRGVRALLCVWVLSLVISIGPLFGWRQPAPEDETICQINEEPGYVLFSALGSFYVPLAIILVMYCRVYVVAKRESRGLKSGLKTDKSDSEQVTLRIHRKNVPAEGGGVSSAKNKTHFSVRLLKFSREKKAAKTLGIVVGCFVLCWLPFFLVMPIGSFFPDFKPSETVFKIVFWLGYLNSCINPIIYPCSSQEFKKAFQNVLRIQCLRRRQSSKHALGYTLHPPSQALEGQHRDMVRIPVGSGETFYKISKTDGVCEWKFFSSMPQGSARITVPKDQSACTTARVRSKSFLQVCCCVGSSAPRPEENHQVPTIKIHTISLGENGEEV
Method: Analysis of Doxazosin and analog binding to rat α1a adrenergic receptor was performed by Eurofins Panlabs Taiwan, Ltd. (Taiwan). [^3H]-prazosin at 0.25 nM was used as the radioligand. […] Non-specific binding was defined by use of 10 μM phentolamine. Incubations were terminated by vacuum filtration over 0.1% PEI pretreated glass fiber filters and filters were washed for 10 s with ice cold 0.1M NaCl and radioactivity retained on the filters was determined by liquid scintillation spectrometry. IC50 values were determined by a non-linear regression analysis using GraphPad Prism v.5 (GraphPad).

EphA2 [2] = molecular target: T2, EphA2 (Homo sapiens, UniProt P29317); test: EphA2 activation in MDA-231-A2 cells (pEphA/B immunoblot); format: cell-based; design: expressed in transfected cells; host or cells: MDA-MB-231 (MDA-231-A2 / MDA-MB-231-A2), puromycin selected; EphA2 activation in compound screen: dose or concentration left out as unconfirmed
T2 sequence (P29317 24-976): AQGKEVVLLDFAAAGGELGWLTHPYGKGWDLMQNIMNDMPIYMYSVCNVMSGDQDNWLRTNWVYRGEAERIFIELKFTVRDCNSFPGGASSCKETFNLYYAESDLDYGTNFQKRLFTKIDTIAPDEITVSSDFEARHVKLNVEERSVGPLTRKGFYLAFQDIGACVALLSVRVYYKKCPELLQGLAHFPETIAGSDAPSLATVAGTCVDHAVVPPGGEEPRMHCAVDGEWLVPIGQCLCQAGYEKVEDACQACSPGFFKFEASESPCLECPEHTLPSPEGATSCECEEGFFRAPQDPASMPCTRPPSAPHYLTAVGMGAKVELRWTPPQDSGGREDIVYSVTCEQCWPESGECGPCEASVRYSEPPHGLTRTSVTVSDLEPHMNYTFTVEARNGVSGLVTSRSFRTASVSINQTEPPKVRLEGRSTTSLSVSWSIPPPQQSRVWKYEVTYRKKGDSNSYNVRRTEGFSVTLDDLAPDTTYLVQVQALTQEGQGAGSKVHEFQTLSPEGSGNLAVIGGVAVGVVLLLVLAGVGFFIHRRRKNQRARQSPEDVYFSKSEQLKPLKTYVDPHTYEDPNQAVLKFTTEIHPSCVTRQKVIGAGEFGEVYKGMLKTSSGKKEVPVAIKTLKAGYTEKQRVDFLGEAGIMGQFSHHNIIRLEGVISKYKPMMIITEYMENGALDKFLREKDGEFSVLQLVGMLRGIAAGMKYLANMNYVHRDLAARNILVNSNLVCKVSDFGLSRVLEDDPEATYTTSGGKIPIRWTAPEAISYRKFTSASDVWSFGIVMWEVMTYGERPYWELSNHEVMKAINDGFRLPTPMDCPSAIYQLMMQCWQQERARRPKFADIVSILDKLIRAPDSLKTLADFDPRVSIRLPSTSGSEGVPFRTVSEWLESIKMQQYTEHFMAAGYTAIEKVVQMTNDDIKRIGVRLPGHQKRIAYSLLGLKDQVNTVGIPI
Method: Cells were plated in 24-well dishes at a density of 100,000 cells/well and grown for 24 hours prior to stimulation with appropriate compounds and ephrins for the given amounts of time. Compounds were prepared in DMSO at 500 times the final concentrations and 0.2% DMSO was used as vehicle control. Following treatment, cells were lysed directly in SDS Gel Loading Buffer and immunoblotted as described previously. Immunoprecipitation and immunofluorescence staining was performed as described. For immunoprecipitation, 300,000 cells/well were plated in 6-well dishes and lysed in modified RIPA Buffer (20 mM Tris-HCl pH 7.4, 20 mM NaF, 150 mM NaCl, 10% glycerol, 0.1% SDS, 0.5% DCA, 2 mM EDTA, 1% Triton X-100) following treatment. Either 10 μg of ephrin-A1-Fc, or […] of EphA2 mouse monoclonal antibody (Clone D7, Millipore) were used, and mouse IgG was used as a negative control for EphA2 IP. To identify small molecule agonists for EphA2, we took a structure-based in silico screening approach. […] This notion was confirmed recently by determination of the crystal structure of the EphA2/ephrin-A1 complex (FIG. 1B). The size falls in the range of common drugs, making EphA2 LBD a desirable target for drug discovery. Toward this end, we initiated in silico screening to search for small molecules that interact favorably with the ligand-binding pocket of EphA2 derived from molecular modeling before the crystal structure became available. Multiple conformations for each structure were generated with OMEGA (OpenEye) and each conformation was docked individually using DOCK. Our initial screening of over 750,000 compounds identified a number of small molecules that could potentially interact with the ligand-binding pocket. The commercially available top-scoring compounds were screened for their ability to induce EphA2 activation in MDAMB-231 breast cancer cells. Because MDA-MB-231 cells express endogenous EphA2 as well as other Eph receptors, including EphA1, we overexpressed EphA2 in order to minimize the contribution from other Eph receptors in our analysis. […] Total cell lysates were probed with a previously described antibody that recognizes the activated Eph receptors. […] Originally developed as an antagonist for α1-adrenoreceptor, doxazosin (FIG. 1D) is an FDA-approved drug (CARDURA) for treating hypertension and benign prostate hyperplasia (BPH). To confirm specific EphA2 activation by doxazosin, we analyzed levels of activated Eph receptor in MDA-231-A2 cells following treatment with multiple doses of doxazosin and EphA2 immunoprecipitation.

EphA2 [3] = molecular target: T2, EphA2; test: EphA2 internalization in MDA-MB-231 cells (immunofluorescence, Example 2); format: cell-based; design: expressed in transfected cells; host or cells: MDA-MB-231 (MDA-231-A2 / MDA-MB-231-A2), puromycin selected; details: 60 min, Doxazosin 50 μM
Method: This was performed using the MDA-MB-231 cell line. This cell line spreads well in culture, thereby facilitating immunofluorescence detection of cell surface and intracellular EphA2 (FIG. 28). […] MDA-MB-231 cells were plated in 24-well plates on 10 mm square coverslips coated with 10 μg/ml fibronectin and incubated 24-48 hrs before treatment with 50 μM Doxazosin and various doses of compound 27 (0.4, 2, 10, 50 μM) in 0.5% DMSO for 1 hr. As another positive control, cells were treated with 2 μg/ml ephrin-A1-Fc. Cells were then washed with PBS and fixed with 4% paraformaldehyde (Electron Microscopy Sciences, Hatfield, PA) on ice for 10 min, followed by washing and permeabilization with 0.4% NP-40 for 10 min on ice. […] Cells were then incubated in primary mouse EphA2 antibody (D7, 1:100) in 0.1% BSA/PBS for 1 hr at room temperature, washed in PBS and BSA/PBS, followed by incubation in secondary donkey anti-mouse Alexa Fluor 488 antibody (1:300) in BSA/PBS for 30 min at room temperature. Cells were washed in PBS and BSA/PBS, followed by mounting in DAPI Mounting Medium (Electron Microscopy Sciences). Images were taken with a Leica microscope.

[4] = MDA-231-A2 cells, single 50 μM dose

COc1cc2nc(N3CCN(C(=O)C4COc5ccccc5O4)CC3)nc(N)c2cc1OC (centres unmarked) [Doxazosin, 2-[4-(2,3-Dihydro-1,4-benzodioxine-2-carbonyl)piperazin-1-yl]-6,7-dimethoxyquinazolin-4-amine]
cell rounding (PC-3 cells): caused rounding of PC-3 cells
IC50 [1]: 0.74 ± 0.3 nM
EphA2 activation after phenoxybenzamine pretreatment versus no pretreatment (EphA2 [2]; MDA-231-A2 cells pretreated with 1 μM phenoxybenzamine): No difference in EphA2 activation
EphA2 degradation (EphA2 [2]; MDA-231-A2 cells, high doses): degradation of EphA2 following exposure to high doses of doxazosin
earliest time of significant EphA2 activation (EphA2 [2]; [4]): 5 min
time of peak EphA2 activation (EphA2 [2]; [4]): around 30 min
EphA2 activation in compound screen (EphA2 [2]; MDA-231-A2 cells, total cell lysates): activated EphA2 to the greatest extent
EphA2 internalization (EphA2 [3]): stimulated significant EphA2 internalization
